Results reported in patent publication US11505574B2, “Modulation of P53 for the treatment of cancer” (THE REGENTS OF THE UNIVERSITY OF CALIFORNIA, priority 2016, dated 2022).

Columns and labels:
RKO cells = experiment: RKO cell colony formation assay (peptides); format: cell-based, human; settings: 5 μM, 3.125 ng/mL doxorubicin 48 hours (FIG. 34D)
Experimental: For the experiments shown in FIG. 34D, RKO cells were seeded on a 6-well plate at a seed density of 2×10^3 cells per well. The following day the cells were treated with 5 μM Pen-Ctrl, 5 μM Pen-Pep23, or 5 μM Pen-Pep8. The following day, 3.125 ng/mL doxorubicin was added to the cells for 48 hours. Subsequently, the cell media was changed every 3 days until colonies were visible. The cells were fixed and stained with crystal violet.

p-eIF4E (Ser209) = experiment: Western blot for p-eIF4E (Ser209) in RKO, MCF7 and miaPaCa2 cells; format: cell-based
Experimental: For the experiments shown in FIG. 37A, RKO cells were plated at a seed density of 1×10^5 cells per well in 12-well plates the night before the addition of peptides. For PEP1 (SEQ ID NO:13) plus Ctrl (SEQ ID NO:11), Pep8 (SEQ ID NO:1), Pep8-SR (SEQ ID NO:53), and Pep8-SK (SEQ ID NO:52), 375 nM of peptide was added to […] PEP1 in 100 μL serum-free DMEM for 20 minutes before being added to the cells for 18 hours. After 18 hours, cells were harvested with 1×SDS-lysis buffer (150 μL) and then lysate was run on a 10% SDS-PAGE gel followed by Western blotting for p53, p-eIF4E (Ser209), and actin.
For the experiments shown in FIG. 37B, MCF7 cells were grown the night before in a 6-well plate seeded with 2×10^5 cells. The next day cells were treated with 2.5 μM Pen-Ctrl (SEQ ID NO:10) or Pen-Pep8 (SEQ ID NO:50) for 18 hours. The following day, the cells were lysed with 1×SDS-lysis buffer (250 μL) and lysate was run on a 10% SDS-PAGE gel. 20 μl was loaded per well followed by Western blot for p-eIF4E (Ser-209), p53, and actin.
For the experiments shown in FIG. 37C, 2×10^5 miaPaCa2 cells per well were plated the day before in a 6-well plate. The following day, the cells were treated with 2.5 μM Pen-Ctrl (SEQ ID NO:10) or Pen-Pep8 (SEP ID NO:50) for 30 minutes then treated with 6.25 ng/mL doxorubicin for 18 hours. […]

HaCaT cells = experiment: HaCaT cell colony formation assay; format: cell-based; settings: HaCaT cells (mutant p53); 10 μM for 20 minutes then 0.5 ng/mL doxorubicin 18 hours (FIG. 37D)
Experimental: For the experiments shown in FIG. 37D, HaCaT and MiaPaCa2 cells were grown in 6-well plates at 500 cells per well. The following day, 10 μM Pen-Ctrl (SEQ ID NO:10), Pen-Pep23 (SEQ ID NO:9), or Pen-Pep8 (SEQ ID NO:50) were added to the cells for 20 minutes followed by treatment with 0.5 ng/mL doxorubicin (for HaCaT cells) or 0.25 ng/mL doxorubicin (for miaPaCa2 cells) for 18 hours, then the media was changed to fresh DMEM. After colonies formed they were fixed (i.e., using 7:1 MeOH:glacial acetic acid) and stained with crystal violet.

[1] = biological target: T1, eIF4E association with p53 mRNA (Homo sapiens, UniProt P06730); experiment: RNA-ChIP assay in RKO cells; format: cell-based; settings: 1.5 μM, 2 hours, versus Pen-Ctrl (FIG. 33A)
T1 construct: endogenous in cells; host or cells: RKO cells
Experimental: RNA-ChIP assays were performed to examine how peptides of the present invention affect eIF4E association with p53 mRNA (FIG. 33). For the experiments shown in FIG. 33A, 4 10 cm plates were seeded with 2×10^6 RKO cells the night before. The next morning 2 plates were treated with 1.5 μM Pen-Ctrl (SEQ ID NO:10) and 2 plates were treated with 1.5 μM Pen-Pep8 (SEQ ID NO:50) for 2 hours. RKO cells were harvested in 1 mL per plate polysome lysis buffer, then centrifuged at 16,000×G for 15 minutes in a microcentrifuge at 4° C. The supernatant was pooled from all aliquots and transferred to a 15 ml tube. Equilibration was performed with 50% protein A-agarose slurry in polysome lysis buffer by washing twice with 0.5 mL of polysome lysis buffer and then restoring the original volume with lysis buffer. 3×200 μL tubes of agarose. For preclearing, one aliquot of equilibrated protein A-agarose beads was added to the lysate (50 μL of 50% agarose per 1 mL lysate) and incubated with rotation at 4° C. for 1 hour. Lysate was divided into microcentrifuge tubes and centrifuged briefly for 30 seconds to collect beads. Supernatant was pooled and transferred to a new 15 mL tube. After repeating the preclearing and bead collection steps, lysate was divided into 1 mL aliquots (i.e., 2×1 mL Pen-Ctrl and 2×1 mL Pen-Pep8). […]

T1 sequence (P06730 2-217 limits assumed): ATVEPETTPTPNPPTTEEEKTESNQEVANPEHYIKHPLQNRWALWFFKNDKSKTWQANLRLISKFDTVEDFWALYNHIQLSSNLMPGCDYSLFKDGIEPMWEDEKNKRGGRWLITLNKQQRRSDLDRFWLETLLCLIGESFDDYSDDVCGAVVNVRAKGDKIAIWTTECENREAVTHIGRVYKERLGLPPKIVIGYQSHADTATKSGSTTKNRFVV

RQIKIWFQNRRMKWKKYPYAASPA [Pen-Pep8, Penetratin fused to Pep8]
colony formation, sensitization to low-dose doxorubicin (RKO cells): sensitized MCF7 and RKO cells to low-dose doxorubicin
p-eIF4E (Ser-209) level (Western blot) (p-eIF4E (Ser209); MCF7 cells, 2.5 μM, 18 hours (FIG. 37B)): reduced p-eIF4E
p-eIF4E (Ser209) level (Western blot) (p-eIF4E (Ser209); miaPaCa2 cells, 2.5 μM for 30 minutes then 6.25 ng/mL doxorubicin 18 hours (FIG. 37C)): substantial decrease in p-eIF4E
colony formation, sensitization to low-dose doxorubicin (HaCaT cells): sensitized to low-dose doxorubicin
eIF4E association with p53 mRNA (RNA-ChIP) [1]: increased eIF4E association with p53 mRNA
